Data published in the kinase profiling compilation of Christmann-Franck et al. (2016).

Experiments:
Assay in all cases: radiometric filter-binding kinase assay
[1] = biological target: BTK (human) (UniProt Q06187)
[2] = biological target: CDK2 CCNA2 (human) (UniProt P20248+P24941)
[3] = biological target: CHEK1 (human) (UniProt O14757)
[4] = biological target: CSNK2A1 (human) (UniProt P68400)
[5] = biological target: DAPK1 (human) (UniProt P53355)
[6] = biological target: EEF2K (human) (UniProt O00418)
[7] = biological target: EPHA4 (human) (UniProt P54764)
EPHA4 (human), sequence (P54764 whole entry, looked up): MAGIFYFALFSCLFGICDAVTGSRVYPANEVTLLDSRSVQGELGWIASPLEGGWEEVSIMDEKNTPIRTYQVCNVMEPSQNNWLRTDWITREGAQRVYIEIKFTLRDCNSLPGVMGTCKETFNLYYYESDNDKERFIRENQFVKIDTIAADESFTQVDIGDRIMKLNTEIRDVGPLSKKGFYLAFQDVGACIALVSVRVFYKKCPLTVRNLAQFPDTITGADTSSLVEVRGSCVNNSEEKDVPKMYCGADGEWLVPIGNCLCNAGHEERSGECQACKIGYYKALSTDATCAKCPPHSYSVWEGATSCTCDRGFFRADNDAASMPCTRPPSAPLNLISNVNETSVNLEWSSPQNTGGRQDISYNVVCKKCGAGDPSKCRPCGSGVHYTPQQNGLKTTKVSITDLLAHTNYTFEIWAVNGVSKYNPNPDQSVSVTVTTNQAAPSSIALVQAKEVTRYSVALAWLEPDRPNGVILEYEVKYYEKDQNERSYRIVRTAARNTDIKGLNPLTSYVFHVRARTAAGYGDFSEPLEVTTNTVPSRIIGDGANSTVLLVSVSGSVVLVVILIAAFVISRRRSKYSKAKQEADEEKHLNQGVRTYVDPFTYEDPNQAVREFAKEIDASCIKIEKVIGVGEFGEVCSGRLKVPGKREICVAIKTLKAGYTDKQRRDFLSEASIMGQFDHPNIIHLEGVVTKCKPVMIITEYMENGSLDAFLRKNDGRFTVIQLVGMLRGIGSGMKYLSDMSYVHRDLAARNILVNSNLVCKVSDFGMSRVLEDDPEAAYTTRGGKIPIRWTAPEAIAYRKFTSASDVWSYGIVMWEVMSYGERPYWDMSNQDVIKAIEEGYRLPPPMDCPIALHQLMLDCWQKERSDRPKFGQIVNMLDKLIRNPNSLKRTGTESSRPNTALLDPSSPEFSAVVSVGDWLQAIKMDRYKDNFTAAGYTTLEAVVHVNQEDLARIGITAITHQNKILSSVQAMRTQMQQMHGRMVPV

[8] = biological target: EPHB1 (human) (UniProt P54762)
[9] = biological target: EPHB4 (human) (UniProt P54760)
[10] = biological target: GCK (human) (UniProt Q12851)
[11] = biological target: IKBKB (human) (UniProt O14920)
IKBKB (human), sequence (O14920 whole entry, looked up): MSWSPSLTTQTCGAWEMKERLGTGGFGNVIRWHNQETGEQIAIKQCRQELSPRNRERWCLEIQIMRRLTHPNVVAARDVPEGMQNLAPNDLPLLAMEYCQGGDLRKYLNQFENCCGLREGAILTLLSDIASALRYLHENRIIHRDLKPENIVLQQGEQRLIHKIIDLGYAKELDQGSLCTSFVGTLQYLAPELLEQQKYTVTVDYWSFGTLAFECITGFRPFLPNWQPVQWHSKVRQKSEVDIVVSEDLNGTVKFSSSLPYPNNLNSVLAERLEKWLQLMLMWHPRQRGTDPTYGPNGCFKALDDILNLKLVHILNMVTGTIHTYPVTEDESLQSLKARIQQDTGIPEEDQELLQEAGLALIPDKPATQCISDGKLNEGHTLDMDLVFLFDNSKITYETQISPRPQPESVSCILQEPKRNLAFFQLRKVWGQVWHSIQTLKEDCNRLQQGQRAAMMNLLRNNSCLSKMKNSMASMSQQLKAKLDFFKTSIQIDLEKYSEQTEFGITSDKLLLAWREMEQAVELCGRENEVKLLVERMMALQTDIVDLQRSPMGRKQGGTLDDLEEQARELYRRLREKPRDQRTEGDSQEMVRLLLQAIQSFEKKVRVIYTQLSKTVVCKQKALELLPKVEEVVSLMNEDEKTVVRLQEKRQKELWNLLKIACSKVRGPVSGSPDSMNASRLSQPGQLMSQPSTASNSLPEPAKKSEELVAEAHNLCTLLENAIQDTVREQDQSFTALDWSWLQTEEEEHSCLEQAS

[12] = biological target: INSRR (human) (UniProt P14616)
INSRR (human), sequence (P14616 whole entry, looked up): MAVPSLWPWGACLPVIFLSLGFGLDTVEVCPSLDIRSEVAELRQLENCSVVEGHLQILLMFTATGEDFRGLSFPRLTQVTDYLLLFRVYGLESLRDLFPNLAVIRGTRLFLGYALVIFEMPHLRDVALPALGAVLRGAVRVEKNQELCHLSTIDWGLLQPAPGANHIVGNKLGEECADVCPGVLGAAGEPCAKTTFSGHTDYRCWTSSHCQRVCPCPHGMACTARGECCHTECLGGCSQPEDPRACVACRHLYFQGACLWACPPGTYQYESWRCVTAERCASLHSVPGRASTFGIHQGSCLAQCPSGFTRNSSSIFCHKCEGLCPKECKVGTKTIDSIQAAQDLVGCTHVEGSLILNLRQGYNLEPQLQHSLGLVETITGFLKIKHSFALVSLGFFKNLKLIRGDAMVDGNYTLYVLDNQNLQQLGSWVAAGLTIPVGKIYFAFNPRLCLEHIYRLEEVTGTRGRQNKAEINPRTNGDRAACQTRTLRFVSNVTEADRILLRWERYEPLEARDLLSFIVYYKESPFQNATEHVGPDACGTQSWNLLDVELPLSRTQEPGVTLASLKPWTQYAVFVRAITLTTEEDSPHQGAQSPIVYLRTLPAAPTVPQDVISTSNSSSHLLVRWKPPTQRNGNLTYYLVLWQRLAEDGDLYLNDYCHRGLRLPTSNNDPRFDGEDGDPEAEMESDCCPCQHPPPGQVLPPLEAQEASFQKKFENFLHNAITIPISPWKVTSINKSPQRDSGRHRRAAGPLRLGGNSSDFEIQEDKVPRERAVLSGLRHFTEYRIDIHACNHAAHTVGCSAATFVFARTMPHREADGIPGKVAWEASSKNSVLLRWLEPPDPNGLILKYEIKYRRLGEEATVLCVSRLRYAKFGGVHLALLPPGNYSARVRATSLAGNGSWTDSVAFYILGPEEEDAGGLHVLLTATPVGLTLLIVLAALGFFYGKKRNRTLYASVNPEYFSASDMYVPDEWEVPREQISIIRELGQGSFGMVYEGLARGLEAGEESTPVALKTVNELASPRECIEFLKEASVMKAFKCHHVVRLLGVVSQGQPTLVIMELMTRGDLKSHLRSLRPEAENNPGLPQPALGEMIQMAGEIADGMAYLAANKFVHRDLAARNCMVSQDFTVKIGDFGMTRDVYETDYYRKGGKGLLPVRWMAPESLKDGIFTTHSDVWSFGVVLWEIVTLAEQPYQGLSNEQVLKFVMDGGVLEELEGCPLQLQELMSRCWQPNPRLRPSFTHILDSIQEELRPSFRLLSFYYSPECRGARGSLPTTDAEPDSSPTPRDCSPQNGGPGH

[13] = biological target: MAP2K1 (human) (UniProt Q02750)
[14] = biological target: MAP2K2 (human) (UniProt P36507)
MAP2K2 (human), sequence (P36507 whole entry, looked up): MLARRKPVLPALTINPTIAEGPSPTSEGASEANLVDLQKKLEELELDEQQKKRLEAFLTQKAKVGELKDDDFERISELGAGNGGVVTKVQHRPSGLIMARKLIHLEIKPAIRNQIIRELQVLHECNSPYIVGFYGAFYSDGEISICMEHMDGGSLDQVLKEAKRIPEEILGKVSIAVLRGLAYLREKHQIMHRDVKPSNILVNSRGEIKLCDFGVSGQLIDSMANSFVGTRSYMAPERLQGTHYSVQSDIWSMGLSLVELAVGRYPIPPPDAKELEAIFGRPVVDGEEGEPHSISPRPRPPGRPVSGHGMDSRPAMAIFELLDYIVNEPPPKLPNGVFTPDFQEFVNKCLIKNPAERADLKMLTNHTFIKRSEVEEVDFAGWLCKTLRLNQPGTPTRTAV

[15] = biological target: MAP3K5 (human) (UniProt Q99683)
[16] = biological target: MAP3K9 (human) (UniProt P80192)
[17] = biological target: MAPK9 (human) (UniProt P45984)
[18] = biological target: MAPKAPK2 (human) (UniProt P49137)
[19] = biological target: MARK3 (human) (UniProt P27448)
[20] = biological target: MARK4 (human) (UniProt Q96L34)
[21] = biological target: MKNK2 (human) (UniProt Q9HBH9)
[22] = biological target: MYLK (human) (UniProt Q15746)
[23] = biological target: NEK6 (human) (UniProt Q9HC98)
[24] = system: PAK2 (human), Q13177 [T402E]
[25] = biological target: PAK6 (human) (UniProt Q9NQU5)
PAK6 (human), sequence (Q9NQU5 whole entry, looked up): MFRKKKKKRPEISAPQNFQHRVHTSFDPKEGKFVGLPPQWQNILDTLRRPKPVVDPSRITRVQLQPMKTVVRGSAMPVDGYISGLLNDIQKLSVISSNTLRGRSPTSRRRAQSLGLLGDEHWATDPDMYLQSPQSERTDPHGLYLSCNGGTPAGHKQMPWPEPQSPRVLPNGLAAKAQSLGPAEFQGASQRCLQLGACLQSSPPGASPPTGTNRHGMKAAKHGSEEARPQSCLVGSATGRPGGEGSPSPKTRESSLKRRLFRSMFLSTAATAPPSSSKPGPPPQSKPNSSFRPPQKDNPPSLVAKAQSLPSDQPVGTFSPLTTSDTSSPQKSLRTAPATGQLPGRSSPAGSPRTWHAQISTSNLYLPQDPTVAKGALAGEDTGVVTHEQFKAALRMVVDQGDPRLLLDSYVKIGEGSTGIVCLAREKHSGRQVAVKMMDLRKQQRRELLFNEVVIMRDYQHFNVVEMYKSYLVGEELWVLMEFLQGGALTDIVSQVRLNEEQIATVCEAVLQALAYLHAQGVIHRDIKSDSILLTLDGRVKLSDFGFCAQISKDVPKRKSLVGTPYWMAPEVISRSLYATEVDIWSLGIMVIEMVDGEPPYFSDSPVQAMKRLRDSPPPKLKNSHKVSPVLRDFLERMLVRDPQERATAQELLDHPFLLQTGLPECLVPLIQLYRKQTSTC

[26] = biological target: PIM1 (human) (UniProt P11309)
[27] = biological target: PIM2 (human) (UniProt Q9P1W9); settings: compound 1.0 µM
[28] = biological target: PIM3 (human) (UniProt Q86V86)
[29] = biological target: PKN2 (human) (UniProt Q16513)
[30] = biological target: RPS6KA5 KD1 KD2 (human) (UniProt O75582)
[31] = system: RPS6KB1 (human), P23443 [T412E]
[32] = biological target: SRPK1 (human) (UniProt Q96SB4)
SRPK1 (human), sequence (Q96SB4 whole entry, looked up): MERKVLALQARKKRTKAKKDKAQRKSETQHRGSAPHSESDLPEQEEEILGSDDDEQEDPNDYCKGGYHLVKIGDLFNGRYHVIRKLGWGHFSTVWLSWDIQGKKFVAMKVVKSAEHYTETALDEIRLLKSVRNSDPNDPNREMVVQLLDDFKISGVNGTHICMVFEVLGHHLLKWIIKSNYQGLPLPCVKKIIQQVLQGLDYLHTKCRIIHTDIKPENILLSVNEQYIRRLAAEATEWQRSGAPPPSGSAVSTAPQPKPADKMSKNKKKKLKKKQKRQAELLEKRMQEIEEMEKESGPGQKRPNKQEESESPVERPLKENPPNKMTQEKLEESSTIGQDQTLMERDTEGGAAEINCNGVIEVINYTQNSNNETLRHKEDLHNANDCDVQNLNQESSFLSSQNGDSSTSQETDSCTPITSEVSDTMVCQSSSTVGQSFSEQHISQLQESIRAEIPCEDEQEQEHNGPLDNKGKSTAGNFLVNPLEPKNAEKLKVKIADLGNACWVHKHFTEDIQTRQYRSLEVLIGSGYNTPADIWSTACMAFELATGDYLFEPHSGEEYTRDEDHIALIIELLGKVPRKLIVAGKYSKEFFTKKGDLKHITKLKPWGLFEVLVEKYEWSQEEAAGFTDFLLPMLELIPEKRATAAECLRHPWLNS

[33] = biological target: STK3 (human) (UniProt Q13188)
[34] = biological target: TBK1 (human) (UniProt Q9UHD2)
[35] = biological target: TTK (human) (UniProt P33981)
[36] = biological target: YES1 (human) (UniProt P07947)

COc1ccc(N(C(=O)Nc2c(C)cccc2C)c2cc(Nc3ccc(N4CCN(C)CC4)cc3)ncn2)c(OC)c1
residual activity ([1]; compound 0.01 µM): 91%
residual activity ([1]; compound 0.1 µM): 38%
residual activity ([1]; compound 1.0 µM): 21%
residual activity ([2]; compound 0.01 µM): 120%
residual activity ([2]; compound 0.1 µM): 121%
residual activity ([2]; compound 1.0 µM): 106%
residual activity ([3]; compound 0.01 µM): 95%
residual activity ([3]; compound 0.1 µM): 100%
residual activity ([3]; compound 1.0 µM): 86%
residual activity ([4]; compound 0.01 µM): 98%
residual activity ([4]; compound 0.1 µM): 100%
residual activity ([4]; compound 1.0 µM): 100%
residual activity ([5]; compound 0.1 µM): 88%
residual activity ([5]; compound 1.0 µM): 96%
residual activity ([6]; compound 0.1 µM): 108%
residual activity ([6]; compound 1.0 µM): 89%
residual activity ([7]; compound 0.01 µM): 71%
residual activity ([7]; compound 0.1 µM): 12%
residual activity ([7]; compound 1.0 µM): 6%
residual activity ([8]; compound 0.01 µM): 62%
residual activity ([8]; compound 0.1 µM): 49%
residual activity ([8]; compound 1.0 µM): 2%
residual activity ([9]; compound 0.01 µM): 110%
residual activity ([9]; compound 0.1 µM): 80%
residual activity ([9]; compound 1.0 µM): 5%
residual activity ([10]; compound 0.01 µM): 103%
residual activity ([10]; compound 0.1 µM): 72%
residual activity ([10]; compound 1.0 µM): 21%
residual activity ([11]; compound 0.01 µM): 83%
residual activity ([11]; compound 0.1 µM): 95%
residual activity ([11]; compound 1.0 µM): 99%
residual activity ([12]; compound 0.01 µM): 113%
residual activity ([12]; compound 0.1 µM): 112%
residual activity ([12]; compound 1.0 µM): 107%
residual activity ([13]; compound 0.01 µM): 107%
residual activity ([13]; compound 0.1 µM): 106%
residual activity ([13]; compound 1.0 µM): 97%
residual activity ([14]; compound 0.01 µM): 101%
residual activity ([14]; compound 0.1 µM): 96%
residual activity ([14]; compound 1.0 µM): 85%
residual activity ([15]; compound 0.01 µM): 110%
residual activity ([15]; compound 0.1 µM): 119%
residual activity ([16]; compound 0.01 µM): 101%
residual activity ([16]; compound 0.1 µM): 97%
residual activity ([16]; compound 1.0 µM): 42%
residual activity ([17]; compound 0.01 µM): 103%
residual activity ([17]; compound 0.1 µM): 90%
residual activity ([17]; compound 1.0 µM): 21%
residual activity ([18]; compound 0.01 µM): 101%
residual activity ([18]; compound 0.1 µM): 100%
residual activity ([18]; compound 1.0 µM): 97%
residual activity ([19]; compound 0.01 µM): 92%
residual activity ([19]; compound 0.1 µM): 73%
residual activity ([19]; compound 1.0 µM): 28%
residual activity ([20]; compound 0.01 µM): 120%
residual activity ([20]; compound 0.1 µM): 101%
residual activity ([20]; compound 1.0 µM): 67%
residual activity ([21]; compound 0.01 µM): 107%
residual activity ([21]; compound 0.1 µM): 107%
residual activity ([21]; compound 1.0 µM): 102%
residual activity ([22]; compound 0.01 µM): 99%
residual activity ([22]; compound 0.1 µM): 89%
residual activity ([22]; compound 1.0 µM): 91%
residual activity ([23]; compound 0.01 µM): 102%
residual activity ([23]; compound 0.1 µM): 90%
residual activity ([23]; compound 1.0 µM): 91%
residual activity ([24]; compound 0.01 µM): 87%
residual activity ([24]; compound 0.1 µM): 59%
residual activity ([24]; compound 1.0 µM): 18%
residual activity ([25]; compound 0.01 µM): 94%
residual activity ([25]; compound 0.1 µM): 101%
residual activity ([25]; compound 1.0 µM): 88%
residual activity ([26]; compound 0.01 µM): 107%
residual activity ([26]; compound 0.1 µM): 113%
residual activity ([26]; compound 1.0 µM): 111%
residual activity [27]: 117%
residual activity ([28]; compound 0.01 µM): 103%
residual activity ([28]; compound 0.1 µM): 110%
residual activity ([28]; compound 1.0 µM): 103%
residual activity ([29]; compound 0.1 µM): 99%
residual activity ([29]; compound 1.0 µM): 90%
residual activity ([30]; compound 0.01 µM): 104%
residual activity ([30]; compound 0.1 µM): 105%
residual activity ([31]; compound 0.01 µM): 88%
residual activity ([31]; compound 0.1 µM): 99%
residual activity ([31]; compound 1.0 µM): 93%
residual activity ([32]; compound 0.01 µM): 96%
residual activity ([32]; compound 0.1 µM): 85%
residual activity ([32]; compound 1.0 µM): 90%
residual activity ([33]; compound 0.01 µM): 112%
residual activity ([33]; compound 0.1 µM): 109%
residual activity ([33]; compound 1.0 µM): 118%
residual activity ([34]; compound 0.01 µM): 101%
residual activity ([34]; compound 0.1 µM): 91%
residual activity ([34]; compound 1.0 µM): 91%
residual activity ([35]; compound 0.01 µM): 100%
residual activity ([35]; compound 0.1 µM): 92%
residual activity ([35]; compound 1.0 µM): 75%
residual activity ([36]; compound 0.01 µM): 34%
residual activity ([36]; compound 0.1 µM): 11%
residual activity ([36]; compound 1.0 µM): 8%
